The results in this text go back to patent publication US7049331B2, “1,2,4-thiadiazole derivatives as melanocortin receptor modulators” (Ortho-McNeil Pharmaceutical, Inc., priority 2001, dated 2006).

Read-outs that look alike come from different tables or passages of the source.

Test [1] concerns the target T1, melanocortin MC-4 receptor (Homo sapiens, UniProt P32245).
T1 construct: purchased Receptor Biology Inc
Nature of the test: Melanocortin MC-4 Receptor Binding Assay (SPA). The protocol: Melanocortin MC-4 Receptor Binding Assay Melanocortin [MC-4]-membrane [purchased from Receptor Biology Inc] was coupled to wheat germ agglutinin coated polyvinyl toluene-Scintillation Proximity Assay beads [purchased from Amersham Pharmacia Inc.] for 30 min at 25° C. Into each well of a 96-well Opti plate [purchased from Packard, Calif.], 2.5 μg of membrane and 0.25 mg of beads were mixed in a volume of 100 μL media. […] Test compounds (1.5 μL) at 1 mM in 30% DMSO-50 mM HEPES, pH 7.4 buffer was added to separate wells on the plate. Radioactive ligand ^125I-NDP-melanocyte stimulating hormone [NEN, 2000Ci/mmol] was added to each well (48.5 μL per well, 40 pM final concentration). The plate was then sealed and let stand for 16 hr at 25° C. NDP-Melanocyte stimulating hormone peptide and α-melanocyte stimulating hormone peptide [purchased from Palomar Research Inc, 1 μM] were used as reference inhibitor compounds to define non-specific binding (N). Total binding (T) was defined using 30% DMSO-50 mM HEPES, pH 7.4 buffer. Bound radioactivity for each well (Y), measured at counts per minute (cpm) was measured in a TopCount [Packard, Calif.]. Percent inhibition was calculated as: […] The procedures described above for the melanocortin MC-4 receptor were repeated for the melanocortin MC-3 receptor. Following the procedures described, representative compounds of the present invention were tested for binding in the MC-4 and/or MC-3 assay, as listed in Table 4.

For another test, the system named is Food-Deprived Rats. Nature of the test: Rodent Feeding: Food Intake in Food-Deprived Rats (MC-4). In kind it is in vivo, rat. The note with it: for change in vivo at 10 mg/kg / change in vivo at 30 mg/kg: Rattus norvegicus; for change in vivo at 30 mg/kg: po. From the text:
Rodent Feeding: Food Intake in Food-Deprived Rats (MC-4)
Male Long-Evans rats (180–200 grams) were housed individually and maintained on a once-a-day feeding schedule (i.e.10 a.m. until 4 p.m.) for five days following quarantine to allow the animals to acclimate to feeding on powdered chow (#5002 PMI Certified Rodent Meal) during the allotted time. The chow was made available in an open jar, anchored in the cage by a wire, with a metal follower covering the food to minimize spillage. Water was available ad-libitum.
Animals were fasted for 18 hours prior to testing. At the end of the fasting period, animals were administered either a test compound or vehicle. Vehicle and test compound were administered either orally (5 mL/kg) 60 minutes prior to the experiment, subcutaneously (1 mL/kg) 30 minutes prior to the experiment, or intraperitoneally (1 mL/kg) 30 minutes prior to the experiment. Test compounds were administered orally as a suspension in aqueous 0.5% methylcellulose-0.4% Tween 80, or intraperitoneally as a solution or suspension in PEG 200; compound concentrations typically ranged from 1 mg/kg to 100 mg/kg, preferably from 10–30 mg/kg. Food intake was measured at 2, 4, and 6 hours after administration by weighing the special jar containing the food before the experiment and at the specified times. Upon completion of the experiment, all animals were given a one-week washout period before re-testing.
Following the procedure described above, select compounds of the present invention were tested to measure the effect on food intake in fasted rats, as listed in Table 5 and 6.

The next test concerns Hippocampal Cells. The test is described as follows: Neurite Cell Outgrowth Assay, hippocampal cells. The note with it: Rattus norvegicus; 50 nM; percent change over the vehicle response; NA = no change/not active. In kind it is cell-based. From the text: (§1) Dissociated hippocampal and cortical cell cultures were established from embryonic day 18 rat fetuses as described by Mattson, M. P., Barger, S. W., Begley, J, and Mark, R. J., Methods Cell Biol., 1994, 46:[…]. Briefly, fetuses were removed via cesarean section from pregnant moms (Sprague-Dawley) and anesthetized with halothane according to the AVMA Panel on Euthanasia. Pups were decapitated and the brains were removed and placed in HEPES-buffered Hank's Balanced Salt solution (HBSS; Gibco). The hippocampi and cortices were dissected out and pooled according to tissue-type. Tissue was trypsinized for 15 min (1 mg/ml trypsin-HBSS; Worthington), rinsed with fresh HBSS, incubated in trypsin inhibitor (1 mg/ml; Sigma) for 5 min, rinsed again with fresh HBSS and then triturated in 1 ml fresh HBSS with a fire-polished glass pipette. Dissociated cells were seeded at 30,000 cells/well onto poly-D-lysine coated 96-well plates (Collaborative BioScience). Each well contained 100 μl of Eagle's Minimal Essential Media (MEM; Gibco) supplemented with 26 mM NaHCO3 (Sigma), 56 mM glucose (Sigma), 15 mM KCl (Sigma), 1 mM sodium pyruvate (Sigma), 1.1 mM L-glutamine (Sigma), 10% (v/v) heat-inactivated fetal bovine serum (Hyclone), and 0.001% gentamicin sulfate (Sigma) (pH 7.4). Cells were allowed to attach for 24 h in a humidified 37° C. 5% CO2 incubator before experimental treatment. The culture media was aspirated and exchanged with fresh media every 3 days.
(§2) Twenty-four hours after plating, cultures were treated with vehicle (PBS+0.1% BSA), alpha-melanocyte stimulating hormone (α-MSH) or test compound (diluted in DPBS). Each treatment condition was run in quadruplicate. On the third day in culture, the media was aspirated off and replaced with fresh media and test compound. At one week in culture, the cells were fixed with 10% phosphate-buffered formalin for 15 min, then rinsed with DPBS (Sigma) and placed in blocking serum for 30 min (horse serum; 1:50 dilution in DPBS; Vector Labs). The cultures were rinsed again with DPBS and then incubated in primary antibody for 2 hr (microtubule-associated protein-2 (MAP-2) is a selective marker for dendritic processes; anti-mouse monoclonal (Chemicon); 1:1000 dilution of MAP-2 in antibody diluent (Zymed)). Negative control wells were incubated in antibody diluent alone. Background signal was determined by blank wells (cell-free) incubated with or without antibody. Cultures were rinsed again with DPBS and then placed in fluorescein for 1 hr (FITC; anti-mouse IgG; rat adsorbed; 1:50 dilution in DPBS; Vector Labs). Cultures were rinsed a final time with DPBS and the plates were then read on a Cytofluor 4000 fluorescence plate reader. Neurite outgrowth was expressed as percent change from control (vehicle).
(§3) The data are expressed as percent change over the vehicle response. All compounds were screened at 50 nM. The abbreviation NA indicates no change/not active; the abbreviation ND indicates a compound not tested/response not determined.

Test [2] concerns the target T1, melanocortin MC-4 receptor. Nature of the test: MC-4 receptor binding (Filtration). The conditions noted are these: Filtration; for IC50: read-out: IC50 MC-4 (μM) (Filtration). On the procedure:
The procedures described above for the melanocortin MC-4 receptor were repeated for the melanocortin MC-3 receptor. Following the procedures described, representative compounds of the present invention were tested for binding in the MC-4 and/or MC-3 assay, as listed in Table 4.

In a further test the test system is Cortical Cells. Nature of the test: Neurite Cell Outgrowth Assay, cortical cells. The class given is cell-based. The conditions noted are these: Rattus norvegicus; 50 nM; percent change over the vehicle response; NA = no change/not active.
From the text: as §1, §2, §3

T1 sequence (P32245 whole entry): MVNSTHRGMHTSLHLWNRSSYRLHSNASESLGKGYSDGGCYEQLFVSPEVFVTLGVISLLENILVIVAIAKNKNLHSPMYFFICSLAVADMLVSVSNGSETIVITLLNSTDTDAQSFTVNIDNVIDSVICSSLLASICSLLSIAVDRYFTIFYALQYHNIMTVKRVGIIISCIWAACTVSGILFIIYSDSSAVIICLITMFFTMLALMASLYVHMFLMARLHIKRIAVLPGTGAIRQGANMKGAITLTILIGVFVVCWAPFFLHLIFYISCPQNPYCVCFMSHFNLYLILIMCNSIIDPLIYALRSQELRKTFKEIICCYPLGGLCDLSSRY

For `COc1ccc(Nc2nc(-c3ccccc3)[n+](-c3ccc(C)cc3)s2)cc1` [Compound 1], the figures for the IC50 in test [1] and in test [2] were 174 nM and 1.1 µM, respectively. Moreover, the change in vivo at 10 mg/kg with Food-Deprived Rats (ip, 2 h, ip, read-out: Change in Food Intake 0–2 hrs (%)) is -11.6%; with Food-Deprived Rats (ip, 6 h, ip, read-out: Change in Food Intake 2–6 hrs (%)), -37%. Besides, the change in vivo at 30 mg/kg was -21.2% in the test with Food-Deprived Rats (2 h, read-out: Change in Food Intake 0–2 hrs (%)) and -6.7% in the test on Food-Deprived Rats (6 h, read-out: Change in Food Intake 2–6 hrs (%)). Also, in the test with Food-Deprived Rats (fasted rats, 10μ, ip), the “Food Intake 2–6 hrs” value is listed as 8.43 g. Also, the “Food Intake 0–2 hrs” value in the test on Food-Deprived Rats (fasted rats, ip) came out at 7.29 g. The compound also registered an activation at 0.05 µM in the test with Hippocampal Cells of 6%.
`COc1ccccc1Nc1nc(-c2ccccc2)[n+](-c2ccc(C)cc2)s1` [Compound 3]: the values for the IC50 in test [1] and in test [2] were 159 nM and 0.7 µM, respectively. The results for the activation at 0.05 µM with Hippocampal Cells and in the test on Cortical Cells were 17% and 23%, respectively.
As to `Clc1ccc(-[n+]2sc(Nc3ccccc3Cl)nc2-c2ccccc2)cc1` [Compound 21], the values for the IC50 in test [1] and in test [2] were 392 nM and 7.8 µM, respectively. Further, the activation at 0.05 µM was 27% with Hippocampal Cells and 2% in the test with Cortical Cells.
`Cc1ccc(Nc2nc(-c3ccccc3)[n+](-c3ccc(C)cc3)s2)cc1` [Compound 4]: the IC50 in test [1] amounted to 297 nM. The activation at 0.05 µM with Hippocampal Cells came to 20%; in the test with Cortical Cells, 21%. Moreover, the “IC50 MC-4 (μM) (Filtration)” value in test [2] was “inactive”.
Turning to `Cc1ccccc1-[n+]1sc(Nc2ccc(Cl)cc2)nc1-c1ccccc1` [Compound 13], the IC50 in test [1] turned out to be 347 nM; in test [2], 3.4 µM. Further, the activation at 0.05 µM in the test on Hippocampal Cells is 29%; in the test on Cortical Cells, 32%.
The like results for `Cc1ccc(-n2s/c(=N/c3ccccc3)nc2-c2ccccc2)cc1` [Compound 82] were, in that order, 826 nM, 1.5 µM, 14% and 15%.
The like results for `Cc1ccccc1-[n+]1sc(Nc2ccccc2Cl)nc1-c1ccccc1` [Compound 14] were, in that order, 234 nM, 5.6 µM, 30% and 19%.
The like results for `COc1ccc(Nc2nc(-c3ccccc3)[n+](-c3ccc(Cl)cc3)s2)cc1` [Compound 16] were, in that order, 424 nM, 4.3 µM, 8% and 18%.
Turning to `Cc1ccc(-[n+]2sc(Nc3ccccc3)nc2-c2ccccc2)cc1` [Compound 2], the values for the IC50 in test [1] and in test [2] were 234 nM and 1.5 µM, respectively. Moreover, the activation at 0.05 µM in the test on Hippocampal Cells and in the test on Cortical Cells was 18% each time.
For `Cc1ccc(Nc2nc(-c3ccccc3)[n+](-c3ccccc3C)s2)cc1` [Compound 11], the IC50 in test [1] came to 243 nM; in test [2] it was 2.4 µM. The activation at 0.05 µM worked out at 9% with Hippocampal Cells and 10% with Cortical Cells.
In the case of `Cc1ccc(-[n+]2sc(Nc3ccc(Cl)cc3)nc2-c2ccccc2)cc1` [Compound 6], the IC50 stood at 293 nM in test [1] and 2.5 µM in test [2]. Further, the activation at 0.05 µM in the test on Hippocampal Cells is 23%; in the test with Cortical Cells, 24%.
Consider `COc1ccccc1Nc1nc(-c2ccccc2)[n+](-c2ccccc2C)s1` [Compound 10], for which the figures for the IC50 in test [1] and in test [2] were 130 nM and 2.3 µM, respectively. The activation at 0.05 µM came out at 7% in the test on Hippocampal Cells and 11% with Cortical Cells.
For `COc1ccc(/N=c2\nc(-c3ccccc3)n(-c3ccc(C)cc3)s2)cc1` [Compound 83], in that order: 833 nM, 1.9 µM, 11% and 9%.
For `Clc1ccc(-[n+]2sc(Nc3ccccc3)nc2-c2ccccc2)cc1` [Compound 15], in that order: 482 nM, 4.5 µM, 18% and 31%.
For the compound `Cc1ccc(-[n+]2sc(Nc3ccccc3C)nc2-c2ccccc2)cc1` [Compound 5], the IC50 in test [1] turned out to be 207 nM; in test [2], 1.3 µM. Further, the activation at 0.05 µM in the test with Hippocampal Cells turned out to be 28%; in the test on Cortical Cells, 9%.
`Cc1ccc(Nc2nc(-c3ccccc3)[n+](-c3ccc(Cl)cc3)s2)cc1` [Compound 18]: the IC50 in test [1] came to 463 nM; in test [2], 6 µM. Further, the activation at 0.05 µM in the test with Hippocampal Cells and in the test on Cortical Cells was 17% in each case.
For `Cc1ccccc1Nc1nc(-c2ccccc2)[n+](-c2ccccc2C)s1` [Compound 12], the “IC50 MC-4 (nM) (SPA)” value in test [1] was “insoluble”. The activation at 0.05 µM with Hippocampal Cells turned out to be 28%; with Cortical Cells, 20%. In addition, the “IC50 MC-4 (μM) (Filtration)” value in test [2] was “insoluble”.
